In US8975411B2, “Therapeutic agent for neurological diseases” (Neugen Pharma Inc., priority 2010, dated 2015):
≈ marks a conversion by molar mass, not a printed value.

How the values were obtained:
[1] = Evaluation of blood-brain barrier permeability (concentration in brain after oral administration, HPLC); assay type: in vivo; details: male C57BL/6N mice, 100 mg/kg once orally, fasting
Procedure: For evaluation of blood-brain barrier permeability, pharmacokinetics (the concentration in brain) in mice was analyzed. In the test, male C57BL/6N mice (at 8 weeks of age) were used. Each compound was suspended in 0.5% sodium carboxymethylcellulose (CMC-Na). The dosage amount was 100 mg/kg per body weight of each mouse. Each compound was administered once orally under fasting conditions. At the time points of 30 minutes and one hour after administration, blood was collected from the heart of each mouse. Subsequently, perfusion was performed using physiological saline containing 10% heparin and thereafter the brain was removed. Serum was obtained by centrifuging the blood sample and brain was lyophilized with liquid nitrogen, both of which were stored at −80° C. until use.
Next, as a pre-treatment for HPLC analysis, deproteinization treatment was performed. Acetonitrile was added to the brain sample and homogenization treatment was performed to grind the brain. The resultant sample was centrifuged (10,000×g, 10 min, 4° C.) and the supernatant was collected, allowed to stand still at −80° C. for 10 minutes, thawed and then centrifuged again (10,000×g, 10 min, 4° C.). The obtained supernatant was dried under vacuum. The vacuum-dried sample was dissolved in a 10 mM phosphate buffer (pH7.0) containing 30-50% acetonitrile, allowed to stand still at −80° C. for 10 minute, thawed again and centrifuged at (10,000×g, 10 min, 4° C.) and the supernatant was collected. Furthermore, filtration treatment by a 0.45 μm filter and centrifugation (10,000×g, 4 min, 4° C.) were performed and subsequently filtration treatment by a 0.22 μm filter and centrifugation (10,000×g, 4 min, 4° C.) were performed. The supernatant was then collected and subjected to HPLC analysis. A standard curve was prepared by using the brain of the same type mouse to which none of the compounds was administered.
(§1) HPLC analysis conditions will be described below.
Column: CAPCELL PAK C18, 4.6 mm I.D.×150 mm (SHISEIDO)
Eluate: 10 mM phosphate buffer/acetonitrile (30-50%)
Dilution solution: 10 mM phosphate
buffer/acetonitrile (30-50%)

[2] = tested on: Human neuroblastoma SH-SY5Y cells; assay: Oxidative stress-mediated cell death suppressive (AOSCD) activity in differentiated nerve cells, menadione, AlamarBlue; assay type: cell-based; details: RA-differentiated SH-SY5Y cells, compound 24 hours before menadione, 4 hours oxidative stress treatment, read-out: ED50 (the source's name)
Procedure: A test was performed by using the same compounds as in Test Example 1. Human neuroblastoma SH-SY5Y cells (ATCC, CRL2266 strain) were cultured in DMEM medium (manufactured by Wako Pure Chemical Industries Ltd.) containing 10% FBS, 100 μg/mL streptomycin and 100 U/mL penicillin G. SH-SY5Y cells were suspended in a DMEM/10% FBS medium, seeded in a cell density of 0.75×10^4 cells/well in a 96-well microplate and cultured in the presence of 5% CO2 at 37° C. for 24 hours. Thereafter, the medium was exchanged with DMEM/10% FBS (DMEM/FBS/RA) medium containing 10 μM all-trans-retinoic acid (RA). At the fifth day, each compound was added so as to obtain 2, 4, 6, 8, 10, 20, 30, 40, 50, 60, 80 μM (final concentration) and culture was performed. Note that, in this experiment, a sample in which DMSO alone was added was used as a negative control.
After 24 hours, an oxidative stress agent, menadione, was added so as to obtain a final concentration of 0, 30, 40, 60 and 80 μM and culture was continued in the presence of 5% CO2 at 37° C. (oxidative stress treatment) Cells treated with a 0.1% Triton X-100/DMEM/FBS/RA medium in place of menadione was used as a blank in this assay. After an oxidative stress treatment for 4 hours, the medium was replaced with a medium containing 10% AlamarBlue and culture was performed in the presence of 5% CO2 at 37° C. Twelve hours later, fluorescent was measured at an excitation wavelength of 530 nm/detection wavelength of 580 nm by use of CYTOFLUOR (registered trade mark) Multi-Well Plate Reader Series 4000 to quantify oxidative stress-mediated cell death suppressive (AOSCD) activity. In accordance with a conventional method, ED50 (Effective Dose) (μM) was calculated.

[3] = Evaluation of solubility in the 1st fluid (pH1.2) of the Japanese pharmacopeia; assay type: physicochemical; details: 1st fluid (pH 1.2) of the Japanese Pharmacopeia, pH 1.2, simulated gastric fluid, thermodynamic from solid, 25° C.
Procedure: Using the same compounds as in Experimental Example 1, solubility in the 1st fluid (pH1.2) of the Japanese pharmacopeia was measured. The 1st fluid of the Japanese Pharmacopeia was prepared by dissolving sodium chloride in hydrochloric acid (7.0 mL) and water and adjusting the total amount to 1000 mL. The 1st fluid of the Japanese Pharmacopeia (0.6 mL) was poured in a tube and a compound was added until a precipitate was observed. Then, the tube was shaken at 25° C. for 24 hours (200 rotations/minute) to obtain a compound solution. The compound solution was added to a 96-well plate to which a 0.22 μm filter (manufactured by Millipore) was set and centrifugally filtrated (2700 rotations/minute, 10 minutes). Thereafter, the concentration of the compound in the filtrate was obtained from the peak area obtained by HPLC analysis. The solution for a calibration curve was prepared by dissolving a compound in DMSO.
as §1
Column: TSKgel ODS-80Tm, 4.6×150 mm (manufactured by Tohso Corporation)
Column temperature: 40° C.
Mobile phase: 20 mM sodium 1-decanesulfonate, 40 mM phosphoric acid, 0.2% trimethylamine/acetonitrile

[4] = tested on: ALS-SOD1^H46R transgenic mice; assay: In vivo drug efficacy test: vertical pole test (motor function); details: 21 weeks of age compared with 17 weeks of age, control significantly reduced
Procedure: (§2) In this test, ALS-SOD1^H46R transgenic mice carrying and expressing ALS1 pathological SOD1 gene (SOD1^H46R) were used. The mice were housed at 23° C. with a 12 hours light/dark cycle. […] Each compound was dissolved in sterilized water, and subsequently an administration solution was prepared with physiological saline. The dose of each compound was 0.01 mg, 0.1 mg and 1 mg/5 ml/kg per body weight of each individual and the compounds were orally administered once per day until an individual dies (compound-administered group). Mice to which physiological saline (5 ml/kg) alone was administered were used as a control group. As an evaluation method for expression of a neurological sign, a balance beam test (a stainless steel bar of 50 cm in length and 0.9 cm in width) was used.
(§3) Each of the mice was subjected to the test and grade 3 was determined as onset of disease. The motor function of the mice in the compound-administered groups and the control group was evaluated based on a vertical pole test and footprint analysis.
The vertical pole test (stainless steel bar of 50 cm in length and 0.9 cm in width was used) was started when the test mice became 17 weeks of age and carried out once a week. Each mouse was given five trials (noted that a maximum value was 45 cm, and when a mouse reached the vertical ascending distance of 45 cm, the trial was terminated at that point). The maximum value of the 5 trials was defined as motor function value.

[5] = tested on: ALS-SOD1^H46R transgenic mice; assay: In vivo drug efficacy test: footprint analysis (ambulation); details: 22 weeks of age compared with 18 weeks of age, control showed abnormal ambulation
Procedure: as §2, §3
Mice of the administered groups and the control group were subject to footprint analysis at 18 weeks and 22 weeks of age. Blue ink and red ink were applied respectively to the front and hind paws of the test mouse and the mouse was then allowed to walk on paper. From the footprint, irregularity of walking was observed. Data was analyzed by use of GraphPad Prism 5 and SPSS 17.0.

[6] = tested on: ALS-SOD1^H46R transgenic mice; assay: In vivo drug efficacy test: survival period after the onset of disease; details: for survival period after the onset of disease: control 33.4±3.2 days; for survival benefit versus control group: 0.01, 0.1 and 1 mg/kg orally once per day from onset
Procedure: as §2, §3

[7] = 0.1 mg/kg orally once per day from onset
[8] = 0.01 mg/kg orally once per day from onset
[9] = 1 mg/kg orally once per day from onset

Compound | Amount of blood brain barrier permeation ([1]; 0.5 h after administration) | Amount of blood brain barrier permeation ([1]; 1 h after administration) | EC50 [2] | solubility at 24 h [3] | motor function by vertical pole test [4, 7] | ambulation by footprint analysis [5, 7] | survival period after the onset of disease [6, 8] | survival period after the onset of disease [6, 7] | survival period after the onset of disease [6, 9] | survival benefit versus control group [6] | motor function by vertical pole test [4, 8] | ambulation by footprint analysis [5, 8]
Cc1cc(C)c(NCC(=O)Nc2nc(-c3ccccn3)c[nH]2)c(C)c1 [Compound 22, 2-(mesitylamino)-N-(4-pyridin-2-yl-1H-imidazol-2-yl)acetamide] | 108 ng/100 μg | 16 ng/100 μg | 21 µM | 1.81 mg/mL (≈ 5.4 mM) |  |  |  |  |  |  |  | 
Cc1cc(C)c(O[C@H](C)C(=O)Nc2nc(-c3ccccn3)c[nH]2)c(C)c1 [Compound 10, (2R)-2-(mesityloxy)-N-[4-(pyridin-2-yl)-1H-imidazol-2-yl]propanamide] | 256 ng/100 μg | 225 ng/100 μg | 8 µM | 7.88 mg/mL (≈ 22.5 mM) | relatively retained | no significant change of ambulation | 43.7 ± 7.5 days | 47.7 ± 6.9 days | 41.8 ± 10.5 days | significant survival benefit |  | 
Cc1cc(C)c(N(C)CC(=O)Nc2nc(-c3ccccn3)c[nH]2)c(C)c1 [Compound 14, 2-[mesityl(methyl)amino]-N-[4-(pyridin-2-yl)-1H-imidazol-2-yl]acetamide] | 519 ng/100 μg | 370 ng/100 μg | 4 µM | 3.07 mg/mL (≈ 8.79 mM) |  |  | 44.5 ± 3.4 days | 42.2 ± 4.5 days | 42.5 ± 2.9 days | significant survival benefit | relatively retained | no significant change of ambulation
Cc1cc(C)c(OCC(=O)Nc2nc(-c3ccccn3)cs2)c(C)c1 [Compound (X), 2-(mesityloxy)-N-(4-pyridin-2-yl-1,3-thiazol-2-yl)acetamide, reference compound] | 62 ng/100 μg | 26 ng/100 μg | 20 µM | 0.03 mg/mL (≈ 0.0849 mM) |  |  |  |  |  |  |  | 
Cc1cc(C)c(OCC(=O)Nc2nc(-c3ccccn3)c[nH]2)c(C)c1 [Compound (Ie), 2-(mesityloxy)-N-[4-(pyridin-2-yl)-1H-imidazol-2-yl]acetamide, reference compound] | 27 ng/100 μg | 8 ng/100 μg | 6 µM | 0.61 mg/mL (≈ 1.81 mM) |  |  |  |  |  |  |  | 
Cc1cc(C)c(O[C@@H](C)C(=O)Nc2nc(-c3ccccn3)c[nH]2)c(C)c1 [Compound 11, (2S)-2-(mesityloxy)-N-[4-(pyridin-2-yl)-1H-imidazol-2-yl]propanamide] | 478 ng/100 μg | 372 ng/100 μg | 4 µM | 7.98 mg/mL (≈ 22.8 mM) |  |  |  |  |  |  |  | 
Cc1cc(C)c(OC(C)(C)C(=O)Nc2nc(-c3ccccn3)c[nH]2)c(C)c1 [Compound 12, 2-(mesityloxy)-2-methyl-N-[4-(pyridin-2-yl)-1H-imidazol-2-yl]propanamide] | 258 ng/100 μg | 133 ng/100 μg | 4 µM | 3.76 mg/mL (≈ 10.3 mM) |  |  | 36.2 ± 4.0 days | 38.8 ± 4.3 days | 41.0 ± 7.9 days | significant survival benefit | relatively retained | no significant change of ambulation
